{"source": "patent US9296694B2", "about": "“Azacyclic compounds” (ACADIA Pharmaceuticals Inc., priority 2000, dated 2016)", "note": "“Also recorded” adds a separate entry of the source.", "data": [{"tested_on": "acoustic startle and prepulse inhibition in rats", "assay": "Startle testing, prepulse inhibition (PPI) in rats", "type": "in vivo", "settings": "rats; 0.5 mg/kg, s.c.", "text": "(§1) Instruments) were used for rat experiments (details on startle apparatus and measures, see Male Non-Swiss Albino mice and male Sprague-Dawley rats (Harlan Sprague-Dawley) were housed (4 mice/cage; 2 rats/cage) in rooms with temperature and humidity controlled and water and food (Harlan Teklad) freely available. Mice were kept on a 12-hr light:dark cycle, whereas rats were kept on a 12-hr reverse light:dark cycle. For locomotor and observation experiments in mice, plastic 20×20×30 cm activity cages were equipped with photocell beams (AccuScan Instruments). Startle chambers (San Diego Instruments) were used for rat experiments (for details on startle apparatus and measures, see Mansbach et al., (1988) Psychopharmacology 94:507-14).\n(§2) Rats were tested and groups (n=10) matched for levels of startle reactivity and prepulse inhibition (PPI; see Mansbach et al., (1988) Psychopharmacology 94:507-14). Two days later, test sessions started and consisted of a 5-min acclimation period with a constant background noise (65 dB), followed by 60 presentations of acoustic stimuli to measure acoustic startle responses. The 60 trials consisted of: twenty two 40-ms presentations of a 120 dB broadband pulse, ten 20-ms presentations of each prepulse intensity (68, 71, 77 dB) 100 ms prior to a 40-msec presentation of a 120 dB broadband pulse, and 8 NOSTIM trials in which no stimuli were delivered in order to assess general motor activation in the rats. Thirty min before testing, rats were treated with sterile water (s.c.), risperidone (1.0 mg/kg, i.p.), or AC-90179 (s.c.). Five min later, rats were administered DOI (0.5 mg/kg, s.c.) or 0.9% saline (s.c.). One-week later, rats were administered the same pretreatment drug or vehicle and crossed over to receive the treatment opposite to that they received the previous week. Startle magnitudes and percent PPI for the three prepulse intensities were calculated as described elsewhere (Bakshi, et al., (1994) J. Pharmacol. Exp. Ther. 271:787-94) and ANOVAs with repeated measures performed.", "values": [{"smiles": "COc1cc(CC(C)N)c(OC)cc1I", "note": "(stereo not drawn) [DOI, reference compound]", "effect on PPI": "significantly disrupted PPI"}]}, {"tested_on": "acoustic startle and prepulse inhibition in rats", "assay": "Startle testing, prepulse inhibition (PPI) in rats", "type": "in vivo", "settings": "rats; 3-way repeated measures ANOVA", "text": "as §1, §2", "values": [{"smiles": "Cc1nc2n(c(=O)c1CCN1CCC(c3noc4cc(F)ccc34)CC1)CCCC2", "note": "[risperidone]", "effect on startle magnitude": "no effect on startle magnitude"}]}, {"tested_on": "acoustic startle and prepulse inhibition in rats", "assay": "Startle testing, prepulse inhibition (PPI) in rats", "type": "in vivo", "settings": "rats; DOI 0.5 mg/kg s.c.; AC-90179 s.c., risperidone 1.0 mg/kg i.p.", "text": "as §1, §2", "values": [{"smiles": "Cc1nc2n(c(=O)c1CCN1CCC(c3noc4cc(F)ccc34)CC1)CCCC2", "note": "[risperidone]", "restoration of PPI in DOI-treated rats": "effective in restoring PPI in DOI-treated rats; also recorded: significant effects"}]}, {"tested_on": "acoustic startle and prepulse inhibition in rats", "assay": "Startle testing, prepulse inhibition (PPI) in rats", "type": "in vivo", "settings": "saline (vehicle)-treated rats; AC-90179 s.c., risperidone 1.0 mg/kg i.p.", "text": "as §1, §2", "values": [{"smiles": "Cc1nc2n(c(=O)c1CCN1CCC(c3noc4cc(F)ccc34)CC1)CCCC2", "note": "[risperidone]", "effect on PPI on its own": "no effect on PPI by itself"}]}, {"tested_on": "DOI-induced head twitches in mice", "assay": "Observation for head twitches in DOI-treated mice", "type": "in vivo", "settings": "mice; 2.5 mg/kg, i.p., 15 min; score 0-6", "text": "as §1\n(§3) Mice were treated with 2.5 mg/kg DOI i.p. Five min later, mice were treated with AC-90179 s.c. and placed into activity cages. Ten min later, mice were observed using a repeated sampling technique. […] Each dose combination was tested in a separate group of animals (n=8) and the experimenter was blind to drug conditions. Head twitch scores were averaged followed by analysis of variance (ANOVA) and post-hoc Dunnett's t-test comparisons.\n(§4) The effect of various compounds on head twitch behavior in mice treated with DOI was observed as described in Example 139. Animals received 0.1-30 mg/kg of the compound indicated via subcutaneous injection. MED indicates the minimum effective dose at which a statistically significant reduction in head twitching score (described above) was observed. MED=minimum effective dose in vivo.", "values": [{"smiles": "COc1cc(CC(C)N)c(OC)cc1I", "note": "(stereo not drawn) [DOI, reference compound]", "average head twitch score": "2.6 (±0.3, S.E.M.)"}]}, {"tested_on": "DOI-induced head twitches in mice", "assay": "Observation for head twitches in DOI-treated mice", "type": "in vivo", "settings": "statistically significant reduction in head twitching score; DOI-treated mice; 0.1-30 mg/kg subcutaneous injection", "text": "as §1, §3, §4", "values": [{"smiles": "COc1ccc(CC(=O)N(Cc2ccc(C)cc2)C2CCN(Cc3ccccc3)CC2)cc1.Cl", "note": "[Compound 26HCH17, N-((4-Methylphenyl)methyl)-N-(1-(phenylmethyl)piperidin-4-yl)-4-methoxyphenylacetamide hydrochloride]", "MED (minimum effective dose in vivo)": "30 mg/kg"}, {"smiles": "COc1ccc(CC(=O)N(Cc2ccc(C)cc2)C2CCN(CC3CCCCC3)CC2)cc1", "note": "[Compound 42ELH45, 2-(4-Methoxyphenyl)-N-(4-methylbenzyl)-N-(1-cyclohexylmethylpiperidin-4-yl)acetamide]", "MED (minimum effective dose in vivo)": "30 mg/kg"}, {"smiles": "COc1ccc(CC(=O)N(Cc2ccc(C)cc2)C2CCN(C3CCCC3)CC2)cc1", "note": "[Compound 42ELH75, 2-(4-Methoxyphenyl)-N-(4-methylbenzyl)-N-(1-cyclopentylpiperidin-4-yl)acetamide]", "MED (minimum effective dose in vivo)": "≦10 mg/kg"}, {"smiles": "CCN1CCC(N(Cc2ccc(C)cc2)C(=O)Cc2ccc(OC)cc2)CC1", "note": "[Compound 42ELH80, 2-(4-Methoxyphenyl)-N-(4-methylbenzyl)-N-(1-ethylpiperidin-4-yl)acetamide]", "MED (minimum effective dose in vivo)": "≦10 mg/kg"}, {"smiles": "COc1ccc(CC(=O)N(Cc2ccc(Cl)cc2)C2CCN(C(C)C)CC2)cc1", "note": "[Compound 42ELH90, 2-(4-Methoxyphenyl)-N-(4-chlorbenzyl)-N-(1-isopropylpiperidin-4-yl)acetamide]", "MED (minimum effective dose in vivo)": "~10 mg/kg"}, {"smiles": "Cc1ccc(CN(C(=O)Cc2ccc(Cl)cc2)C2CCN(C(C)C)CC2)cc1", "note": "[Compound 47AKU-7, 2-(4-Chlorophenyl)-N-(4-methylbenzyl)-N-(1-isopropylpiperidin-4-yl)acetamide]", "MED (minimum effective dose in vivo)": "≦10 mg/kg"}, {"smiles": "Cc1ccc(CN(C(=O)Cc2ccc(Cl)cc2)C2CCN(C)CC2)cc1", "note": "[Compound 47AKU-8, 2-(4-Chlorophenyl)-N-(4-methylbenzyl)-N-(1-methylpiperidin-4-yl)-acetamide]", "MED (minimum effective dose in vivo)": "≦10 mg/kg"}, {"smiles": "Cc1ccc(CN(C(=O)Cc2ccc(Cl)cc2)C2CCN(C3CCCC3)CC2)cc1", "note": "[Compound 47AKU-11, 2-(4-Chlorophenyl)-N-(4-methylbenzyl)-N-(1-cyclopentylpiperidin-4-yl)-acetamide]", "MED (minimum effective dose in vivo)": "~10 mg/kg"}, {"smiles": "CCN1CCC(N(Cc2ccc(C)cc2)C(=O)Cc2ccc(Cl)cc2)CC1", "note": "[Compound 47AKU-12, 2-(4-Chlorophenyl)-N-(4-methylbenzyl)-N-(1-ethylpiperidin-4-yl)acetamide]", "MED (minimum effective dose in vivo)": "≦10 mg/kg"}, {"smiles": "Cc1ccc(CN(C(=O)Cc2ccccc2)C2CCN(C)CC2)cc1", "note": "[Compound 47AKU-13, 2-Phenyl-N-(4-methylbenzyl)-N-(1-methylpiperidin-4-yl)-acetamide]", "MED (minimum effective dose in vivo)": "≦10 mg/kg"}, {"smiles": "Cc1ccc(CN(C(=O)Cc2ccc(F)cc2)C2CCN(C)CC2)cc1", "note": "[Compound 47AKU-14, 2-(4-Flourophenyl)-N-(4-methylbenzyl)-N-(1-methylpiperidin-4-yl)-acetamide]", "MED (minimum effective dose in vivo)": "≦10 mg/kg"}, {"smiles": "Cc1ccc(CN(C(=O)Cc2ccc(Cl)cc2)C2CCN(CCO)CC2)cc1", "note": "[Compound 47AKU-18, 2-(4-Chlorophenyl)-N-(4-methylbenzyl)-N-(1-(2-hydroxyethyl)-piperidin-4-yl)-acetamide]", "MED (minimum effective dose in vivo)": "≧10 mg/kg"}, {"smiles": "Cc1ccc(CN(C(=O)Cc2ccc(Cl)cc2)C2CCN(C3CCC3)CC2)cc1", "note": "[Compound 47AKU-19, 2-(4-Chlorophenyl)-N-(4-methylbenzyl)-N-(1-cyclobutylpiperidin-4-yl)-acetamide]", "MED (minimum effective dose in vivo)": ">10 mg/kg"}, {"smiles": "COc1ccc(CC(=O)N(Cc2ccc(C)cc2)C2CCN(C3CCC3)CC2)cc1", "note": "[Compound 47AKU-20, 2-(4-Methoxyphenyl)-N-(4-methylbenzyl)-N-(1-cyclobutylpiperidin-4-yl)acetamide]", "MED (minimum effective dose in vivo)": "≦10 mg/kg"}, {"smiles": "COc1ccc(CC(=O)N(Cc2ccc(C)cc2)C2CC3CCC(C2)N3C)cc1", "note": "(stereo not drawn) [Compound 47AKU-21, 2-(4-Methoxyphenyl)-N-(4-methylbenzyl)-N-(tropin-4-yl)acetamide]", "MED (minimum effective dose in vivo)": ">10 mg/kg"}, {"smiles": "Cc1ccc(CN(C(=O)NCc2ccccc2)C2CCN(C)CC2)cc1", "note": "[Compound 47AKU-22, N-(4-Methylbenzyl)-N-(1-methylpiperidin-4-yl)-N′-benzyl-carbamide]", "MED (minimum effective dose in vivo)": "≦10 mg/kg"}, {"smiles": "CN1CCC(N(CCc2ccccc2)C(=O)NCc2ccccc2)CC1", "note": "[Compound 47AKU-25, N-Phenethyl-N-(1-methylpiperidin-4-yl)-N′-benzyl-carbamide]", "MED (minimum effective dose in vivo)": ">10 mg/kg"}, {"smiles": "COc1ccc(CNC(=O)N(Cc2ccc(C)cc2)C2CCN(C)CC2)cc1", "note": "[Compound 47AKU-44, N-(4-Methylbenzyl)-N-(1-methylpiperidin-4-yl)-′N′-(4-methoxybenzyl)-carbamide]", "MED (minimum effective dose in vivo)": "≦10 mg/kg"}, {"smiles": "COc1ccc(CC(=O)N(Cc2ccc(C)cc2)C2CCN(C(C)(C)C)CC2)cc1", "note": "[Compound 47AKU-49, 2-(4-Methoxyphenyl)-N-(4-methylbenzyl)-N-(1-t-butylpiperidin-4-yl)-acetamide]", "MED (minimum effective dose in vivo)": "≦10 mg/kg"}, {"smiles": "CN1CCC(N(Cc2ccc(F)cc2)C(=O)Cc2ccc(F)cc2)CC1", "note": "[Compound 50ELH6, 2-(4-Fluorophenyl)-N-(4-fluorobenzyl)-N-(1-methylpiperidin-4-yl)acetamide]", "MED (minimum effective dose in vivo)": "≦10 mg/kg"}, {"smiles": "COc1ccc(CC(=O)N(CCCc2ccccc2)C2CCN(C)CC2)cc1", "note": "[Compound 50ELH65, 2-(4-Methoxyphenyl)-N-(3-phenyl-1-propyl)-N-(1-methylpiperidin-4-yl)acetamide]", "MED (minimum effective dose in vivo)": "≦10 mg/kg"}, {"smiles": "COc1ccc(CC(=O)N(CCc2ccc(C)cc2)C2CCN(C)CC2)cc1", "note": "[Compound 50ELH68]", "MED (minimum effective dose in vivo)": "≦10 mg/kg"}, {"smiles": "COc1ccc(CC(=O)N(CCc2ccc(F)cc2)C2CCN(C)CC2)cc1", "note": "[Compound 50ELH93A, 2-(4-Methoxyphenyl)-N-(2-4-(fluorophenyl)ethyl)-N-(1-methylpiperidin-4-yl)acetamide]", "MED (minimum effective dose in vivo)": "≦10 mg/kg"}, {"smiles": "CCOc1ccc(CC(=O)N(Cc2ccc(C)cc2)C2CCN(C)CC2)cc1", "note": "[Compound 58AKU-4, 2-(4-Ethoxyphenyl)-N-(4-methylbenzyl)-N-(1-methylpiperidin-4-yl)acetamide]", "MED (minimum effective dose in vivo)": "≦10 mg/kg"}, {"smiles": "CCCCOc1ccc(CC(=O)N(Cc2ccc(C)cc2)C2CCN(C)CC2)cc1", "note": "[Compound 58AKU-5, 2-(4-Butoxyphenyl)-N-(4-methylbenzyl)-N-(1-methylpiperidin-4-yl)acetamide]", "MED (minimum effective dose in vivo)": "≦1 mg/kg"}, {"smiles": "Cc1ccc(CN(C(=O)Cc2ccc(OC(C)C)cc2)C2CCN(C)CC2)cc1", "note": "[Compound 58AKU-6, 2-(4-i-Propoxyphenyl)-N-(4-methylbenzyl)-N-(1-methylpiperidin-4-yl)acetamide]", "MED (minimum effective dose in vivo)": "≦10 mg/kg"}, {"smiles": "CCOc1ccc(CC(=O)N(CCc2ccc(F)cc2)C2CCN(C)CC2)cc1", "note": "[Compound 63ELH20, 2-(4-ethoxyphenyl)-N-[2-(4-fluorophenyl)ethyl]-N-(1-methylpiperidin-4-yl)acetamide]", "MED (minimum effective dose in vivo)": "≦10 mg/kg"}, {"smiles": "CCOc1ccc(CC(=O)N(Cc2ccc(F)cc2)C2CCN(C)CC2)cc1", "note": "[Compound 63ELH21, 2-(4-Ethoxyphenyl)-N-(4-fluorobenzyl)-N-(1-methylpiperidin-4-yl)acetamide]", "MED (minimum effective dose in vivo)": "≦10 mg/kg"}]}]}
